From ChEMBL document CHEMBL4725293, “Synthesis of novel lignan-like compounds and their antimicrobial activity” (Bioorg Med Chem Lett, 2020) come the findings set out here.

In one series the test system is Pseudomonas aeruginosa. Briefly: Antibacterial activity against Pseudomonas aeruginosa ATCC 27853 by broth microdilution method. Format: functional. (In broth dilution the organism is exposed to a series of concentrations in liquid medium.)
The subject of series [1] is Staphylococcus aureus. Briefly: Antibacterial activity against Staphylococcus aureus ATCC 29213 by broth microdilution method. Format: functional.
The next series relates to Candida albicans. Description: […] activity against Candida albicans ATCC 90028 by broth microdilution method. It counts as functional.
The test system of series [2] is Staphylococcus aureus. Description: Bactericidal activity against Staphylococcus aureus ATCC 29213 at 32 ug/ml measured at 6 hrs by time kill assay (reference value: 5.65 to 9.57). It counts as functional. As to conditions: dose 32 µg/ml.
Series [3] has as its system Staphylococcus aureus. Briefly: Bactericidal activity against Staphylococcus aureus ATCC 29213 at 32 ug/ml measured at 24 hrs by time kill assay (reference value: 5.65 to 9.57). It counts as functional. As to conditions: dose 32 µg/ml.
For series [4], the system named is Staphylococcus epidermidis. Briefly: Inhibition of biofilm formation in Staphylococcus epidermidis ATCC 35984 at 64 ug/ml by crystal violet staining based assay relative to control. Format: functional.
The nature of series [5]: Cytotoxicity against human HaCaT cells assessed as reduction in cell viability at 32 ug/ml incubated for 24 hrs by MTT assay. It counts as cell-based. Conditions: at 32 µg/mL, read-out: INH. For orientation: Tetrazolium assays rely on reduction of a dye to a coloured formazan, in cell work by metabolically active cells.
Series [6] deals with Staphylococcus aureus. Briefly: Bactericidal activity against Staphylococcus aureus ATCC 29213 at 32 ug/ml measured at 3 hrs by time kill assay (reference value: 5.65 to 9.57). Format: functional. As to conditions: dose 32 µg/ml.
Series [7] can be described thus: Cytotoxicity against human HaCaT cells assessed as reduction in cell viability at 16 ug/ml incubated for 24 hrs by MTT assay. It counts as cell-based. Conditions: at 16 µg/mL, read-out: INH.
Series [8] has as its system Staphylococcus aureus. Description: Bactericidal activity against Staphylococcus aureus ATCC 29213 at 32 ug/ml measured at 1 hr by time kill assay (reference value: 5.65 to 9.57). Conditions: dose 32 µg/ml. It counts as functional.
Series [9] has as its system Staphylococcus aureus. Description: Bactericidal activity against Staphylococcus aureus ATCC 29213 at 32 ug/ml measured at 0 hrs by time kill assay (reference value: 5.65 to 9.57). It counts as functional. As to conditions: dose 32 µg/ml.
The subject of series [10] is Staphylococcus epidermidis. Briefly: Antibacterial activity against Staphylococcus epidermidis ATCC 35984 by broth microdilution method. It counts as functional.
The test system of series [11] is Staphylococcus epidermidis. Description: Induction of preformed biofilm disruption in Staphylococcus epidermidis ATCC 35984 at 64 ug/ml by crystal violet staining based assay relative to control. Format: functional. As to conditions: dose 64.0 µg/ml.
Series [12] relates to Staphylococcus epidermidis. Briefly: Inhibition of biofilm formation in Staphylococcus epidermidis ATCC 35984 at 8 to 32 ug/ml by crystal violet staining based assay relative to control. It counts as functional, organism-based. Conditions: dose microg/ml 8-32.
Series [13] has as its system Staphylococcus aureus. Briefly: Bactericidal activity against Staphylococcus aureus ATCC 29213 at 16 ug/ml measured at 24 hrs by time kill assay (reference value: 5.65 to 9.57). It counts as functional. Conditions: dose 16 µg/ml.
Series [14] deals with Staphylococcus aureus. Description: Bactericidal activity against Staphylococcus aureus ATCC 29213 at 16 ug/ml measured at 1 hr by time kill assay (reference value: 5.65 to 9.57). It counts as functional. As to conditions: dose 16 µg/ml.
Series [15] relates to Staphylococcus aureus. Description: Bactericidal activity against Staphylococcus aureus ATCC 29213 at 16 ug/ml measured at 3 hrs by time kill assay (reference value: 5.65 to 9.57). Format: functional. As to conditions: dose 16 µg/ml.
For series [16], the system named is Staphylococcus aureus. Briefly: Bactericidal activity against Staphylococcus aureus ATCC 29213 at 16 ug/ml measured at 0 hrs by time kill assay (reference value: 5.65 to 9.57). It counts as functional. As to conditions: dose 16 µg/ml.
The test system of series [17] is Staphylococcus aureus. Description: Bactericidal activity against Staphylococcus aureus ATCC 29213 at 16 ug/ml measured at 6 hrs by time kill assay (reference value: 5.65 to 9.57). It counts as functional. As to conditions: dose 16 µg/ml.

In brackets after ≈: the same amount, converted by molar mass. Activity calls are given as the source filed them.

As usually defined, the MIC is the smallest concentration in the dilution series that meets the test's criterion for growth inhibition. As for `Oc1ccc(Cc2cocc2Cc2ccccc2O)cc1`, the MIC is over 128 µg/mL in the series on Pseudomonas aeruginosa and 64 µg/mL (≈ 228 µM) against Staphylococcus aureus [1].
The term inhibition denotes the percentage by which the read-out fell short of the control. `Oc1ccc(Cc2cocc2Cc2ccc(O)cc2)cc1`: the MIC is 32 µg/mL (≈ 114 µM) in the series with Candida albicans, over 128 µg/mL against Pseudomonas aeruginosa, 32 µg/mL (≈ 114 µM) in series [10] and 32 µg/mL (≈ 114 µM) with Staphylococcus aureus [1]. Further, the Activity with Staphylococcus aureus [2] is 7.77 log10CFU/ml; with Staphylococcus aureus [3], 8.86 log10CFU/ml; in the series on Staphylococcus aureus [6], 6.38 log10CFU/ml; in the series on Staphylococcus aureus [8], 5.77 log10CFU/ml; with Staphylococcus aureus [9], 5.74 log10CFU/ml. In series [4], at 64 µg/mL the inhibition was 33%. For the same compound, in series [5], the cytotoxicity at 24 h, 32 ug/ml came out at 40%. The cytotoxicity at 24 h, 16 ug/ml in [7] was 25%. The compound further gave an inhibition in series [11] of 25%. Moreover, in series [12], the inhibition result was “inactive”.
As to `COc1ccc(Cc2cocc2Cc2ccccc2OC)cc1`, the MIC in the series on Pseudomonas aeruginosa and in the series on Staphylococcus aureus [1] was over 128 µg/mL each time.
In the case of `COc1ccc(Cc2cocc2Cc2ccc(O)cc2)cc1`, the minimum inhibitory concentration (MIC) was 16 µg/mL (≈ 54.4 µM) with Candida albicans, over 128 µg/mL with Pseudomonas aeruginosa, 16 µg/mL (≈ 54.4 µM) in series [10] and 16 µg/mL (≈ 54.4 µM) in the series on Staphylococcus aureus [1]. Also, the Activity is 1.24 log10CFU/ml in the series on Staphylococcus aureus [13]; 2.2 log10CFU/ml in the series with Staphylococcus aureus [14]; 1.6 log10CFU/ml in the series on Staphylococcus aureus [15]; 5.75 log10CFU/ml with Staphylococcus aureus [16]; 1.35 log10CFU/ml in the series on Staphylococcus aureus [17]. Besides, the inhibition at 64 µg/mL in [4] is 33%. For the same compound, the cytotoxicity at 24 h, 16 ug/ml in [7] was 50%. The inhibition in series [11] was determined as 25%. The inhibition result in series [12] is “inactive”.
Turning to `NC[C@H]1O[C@H](O[C@H]2[C@H](O)[C@@H](O[C@H]3O[C@H](CO)[C@@H](O)[C@H](N)[C@H]3O)[C@H](N)C[C@@H]2N)[C@H](N)C[C@@H]1O` [TOBRAMYCIN], the MIC with Pseudomonas aeruginosa is 4 µg/mL (≈ 8.56 µM).
Regarding `COc1ccc(CC2=C(Cc3ccc(OC)cc3)C(O)OC2=O)cc1` (configuration not stated), the MIC in the series on Pseudomonas aeruginosa and against Staphylococcus aureus [1] was over 128 µg/mL throughout.
As for `COc1ccc(Cc2cocc2Cc2ccccc2O)cc1`, the Activity in the series on Staphylococcus aureus [13] was determined as 1.56 log10CFU/ml; in the series on Staphylococcus aureus [14] it was 2.47 log10CFU/ml; in the series on Staphylococcus aureus [15] it was 1.94 log10CFU/ml; in the series on Staphylococcus aureus [16], 5.7 log10CFU/ml; with Staphylococcus aureus [17], 1.61 log10CFU/ml. Moreover, the minimal inhibitory concentration (MIC) with Pseudomonas aeruginosa is over 128 µg/mL; in the series on Staphylococcus aureus [1], 16 µg/mL (≈ 54.4 µM).
Consider `CC(=O)Oc1ccc(Cc2cocc2Cc2ccc(OC(C)=O)cc2)cc1`, for which the MIC against Pseudomonas aeruginosa and in the series with Staphylococcus aureus [1] was over 128 µg/mL in each case.
`O=C1OC(O)C(Cc2ccc(O)cc2)=C1Cc1ccc(O)cc1` (configuration not stated): the MIC in the series on Pseudomonas aeruginosa and in the series with Staphylococcus aureus [1] was over 128 µg/mL throughout.
On to `C[C@@H]1[C@H](O)[C@@H](C)/C=C/C=C/C=C/C=C/C=C/C=C/C=C/[C@H](O[C@@H]2O[C@H](C)[C@@H](O)[C@H](N)[C@@H]2O)C[C@@H]2O[C@](O)(C[C@@H](O)C[C@@H](O)[C@H](O)CC[C@@H](O)C[C@@H](O)CC(=O)O[C@H]1C)C[C@H](O)[C@H]2C(=O)O` [AMPHOTERICIN B], for which the MIC against Candida albicans came to 0.25 µg/mL (≈ 0.271 µM).
For the compound `COc1ccc(CC2C(=O)OC3OC32Cc2ccc(OC)cc2)cc1` (configuration not stated), the MIC against Pseudomonas aeruginosa and in the series on Staphylococcus aureus [1] was over 128 µg/mL each time.
On to `COc1ccc(CC23OC2OC2OC23Cc2ccc(OC)cc2)cc1` (configuration not stated), for which the minimal inhibitory concentration (MIC) in the series with Pseudomonas aeruginosa and in the series on Staphylococcus aureus [1] was over 128 µg/mL in each case.
As to `COc1ccc(Cc2cocc2Cc2ccc(OC)cc2)cc1`, the MIC with Pseudomonas aeruginosa and in the series on Staphylococcus aureus [1] was over 128 µg/mL each time.
